Measured values published in EP1600153A1, “Slow-release pharmaceutical composition allowing to monitor drug release” (Deutsches Krebsforschungszentrum Stiftung des öffentlichen …, priority 2004, dated 2005).

Assays:
[1] = Subcutaneous injection of FLAMP solution (control): 19F MRS in vivo at the site of injection; set-up: species or system rat
Description: Subcutaneous injection of 34 mcmol FLAMP, along with 0.5 mcmol Gd-DTPA, as a 1 ml-solution in an adult male rat, 19F MRS in vivo at the site of injection. Relative FLAMP signal (peak area of FLAMP / peak area of external NaF standard) versus time after injection.
(§1) A solution of the drug and the contrast agent was injected subcutaneously, followed by local MRS and MRI monitoring as in Example 2, in order to test whether either agent might be locally detectable even after release from the depot preparation. The injection volume (1 ml) and the amount of drug (FLAMP, 34 mcmoles) were the same as in Example 2 while the amount of contrast agent was doubled (Gd-DTPA, 0.5 mcmol).

[2] = course of plasma level corresponds to that after intravenous application; cited from earlier work
[3] = Subcutaneous liposome depot preparation in rats: amount of FLAMP at the site of injection by 19F-MRS in vivo; set-up: species or system Wistar rats
Description: 2 ml aqua bidest., 1,7 µl Magnevist™ and 200 mg Phospholipon™ 90H were added to a bottle for injection of Fludara™. The mixture was mixed by hand for 20 min. at room temperature. Then, the mixture was subjected to 6 cycles of vortexing for 2 min. and placing in a water bath at 64°C for 3 min.. Subsequently, the mixture was subjected to 6 cycles of holding in liquid nitrogen for 3 min. and placing in a water bath at 64°C for 6 min. Finally, the mixture was washed for four times with each of 10 ml phosphate buffer. After each washing step, the mixture was centrifuged for 15 min. at 10,000 x g. A colorless preparation having a consistency of a paste was obtained which was transferred to a syringe.
Adult male Wistar rats were bred in twos in isolators and received Altromin™ and water ad libitum. At day 1, in the morning rats were subcutaneously injected once with 1 ml of the pharmaceutical composition described in Example 1 into the right flank ("Luer"-canulla No.12 with screw thread). Injections and NMR-measurements were carried with rats which had been previously subjected to inhalation anesthesia (77% N2, 22% O2 and 1 - 1,2% Isofluran™) .
At day 1, in the morning (after the formulation had been injected) and in the afternoon, respectively, as well as at days 4, 13, 22, 29, 36 and 43 the following NMR-measurements were carried out: The amount of Fludarabin monophosphate (FLAMP) at the site of injection was determined by ^19F-MRS and the volume and the contrast intensity of the drug depot was measured by MRT.
A 1,5-T whole body tomograph(Magnetom Vision Plus, Siemens AG, Erlangen, Germany) was used for the NMR-measurements. For both, the ^19F-MRS and the ^1H-imaging a volume resonator which had been constructed by the DKFZ (resonance frequency: 63,6 MHz (^1H) , 59,9 MHz (^19F) with an inner diameter of 8.4 cm was used which served as transmitting- and receiving coil.
After the rats had been positioned (subcutaneous liposome depot in the middle of the resonator) the volume resonator was manually tuned to the ^1H resonance frequency. After "Shim" (optimization of field homogeneity) by use of the ^1H-tissue water resonance line and subsequent tuning of the coil to the ^19F resonance frequency the ^19F spectra were recorded. The reading sequence comprised a simple non-layer-specific pulsed excitation with subsequent recording of 1024 readings in 51.2 ms corresponding to the fast T2-decay of the FID. The recording period of TA = 33:21 min. resulted from a repetition time TR = 100 ms and a number of NEX = 20000 excitations.
In order to get a reference for the chemical shift and the signal intensity of FLAMP a 0.5 ml reference solution containing 400 mM NaF was applied to the middle of the underside of the volume resonator with the resonance of this solution being at about -40 ppm (with reference to TFA). The follow-up editing of the spectra was carried out by use of the software LUISE which is implemented to the tomograph. […] The relation of the integrals of the resonances of FLAMP to NaF served as a reference value for the individual readings. ^1H-imaging with high resolution was carried with a T1-weighted 3D-gradient-echo-method (3D-FLASH) with lipid saturation (parameters used for measurements: TR = 45 ms; TE = 11 ms; α = 30; FOV = 50 mm; matrix-size = 128 x 128; period of acquisition for the individual readings: 15,36 ms). Multiple transverse layer images of the liposome depots were recorded with layers having an actual thickness of 2, 1- and 0,4 mm, respectively. […]

[4] = Subcutaneous injection of Gd-DTPA solution (control): 1H MR imaging at the site of injection; format: in vivo, rat
Description: Subcutaneous injection of 0.5 mcmol Gd-DTPA (along with 34 mcmol FLAMP), as a 1 ml-solution in an adult male rat (left flank). Transversal 1H MR images (slice thickness 2 mm) from the region of the injection, taken 85 min after injection. Images numbered in caudal-cranial direction.
as §1

Row | Molecule | 19F MRS signal from the drug at the site of injection ([1]; 8 min after s.c. injection of solution, 34 mcmoles FLAMP in 1 ml) | 19F MRS signal from the drug at the site of injection ([1]; after 24 hours, s.c. solution, 34 mcmoles FLAMP) | disappearance of MRS signals from the drug itself or indistinguishable metabolites ([1]; drug injected as a solution) | drop of 19F MRS signal from the drug ([1]; within 5 hours after s.c. injection of solution, 34 mcmoles FLAMP) | absorption after subcutaneous application [2] | drug amounts injected still present at the site of injection ([3]; day 13 post injection, s.c. 1 ml liposome depot (Phospholipon, Fludara, Magnevist), 19F-NMR-spectroscopy) | drug amounts injected still present at the site of injection ([3]; end of the experiment (day 43, six weeks), s.c. liposome depot) | amounts of drug available for release, of the amounts initially injected ([3]; end of the period, about six weeks after subcutaneous injection of depot) | time at which amount of FLAMP at the site of injection started to decrease continuously ([3]; s.c. liposome depot, 19F-MRS) | amounts of drug available for release, of the amounts initially injected ([3]; start of the period, about one week after subcutaneous injection of depot) | contrast enhancement at the site of injection (1H-images, 24 adjacent 2 mm layers) ([4]; 85 min after s.c. injection of solution, 0.5 mcmol Gd-DTPA) | area of remaining contrast enhancement ([4]; 85 min after s.c. injection of solution, 0.5 mcmol Gd-DTPA, three adjacent layers) | contrast enhancement left at the site of administration ([4]; one and a half hours after subcutaneous injection of Gd-DTPA solution)
1 | Nc1nc(F)nc2c1ncn2[C@@H]1O[C@H](COP(=O)(O)O)[C@@H](O)[C@@H]1O [FLAMP, Fludarabin-5'-monophosphate] | about the same as on day 1 after injecting the depot preparation | no longer detectable | disappear within a few hours | more than 90 | immediately absorbed | 70% | 10% | 12% | About one week after injection | 70% |  |  | 
2 | gadolinium-DPTA [Gd-DTPA] |  |  |  |  |  |  |  |  |  |  | only a faint diffuse contrast enhancement was detectable in three adjacent layers | about 212 mm | Almost no contrast enhancement was left
